One experiment addresses B-Raf (Homo sapiens, UniProt P15056). In words: B-Raf Accelerated MEK ATPase assay (BRAMA), Method A or B. It counts as biochemical. In outline:
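Activated Raf plus non-phosphorylated MEK drives MEK-mediated ATP hydrolysis; ADP formation coupled via pyruvate kinase/lactate dehydrogenase to NADH oxidation. Method A read kinetically; Method B used 150 nM final MEK and a single end-point read.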

A further experiment concerns BT474 tumor cells. The experiment is described as follows: Cell growth inhibition assay (CellTiter-Glo), BT474. It counts as cell-based, Human. As to conditions: 3 days incubation.
Setting [1] is: Method B: final MEK 150 nM, single end point read.

The structures appear in SMILES notation. Where a name gives a salt, the structure may show the parent alone. Bounds are passed on as bounds.

Data on 32 molecules can be found in patent US20110319392A1, “Thiazole Sulfonamide And Oxazole Sulfonamide Kinase Inhibitors” (priority 2009, published 2011).

As a reminder, the IC50 is the concentration that inhibits the measured activity by half. Low readings indicate greater potency, high ones weaker potency.

Sequence of B-Raf (P15056 whole entry): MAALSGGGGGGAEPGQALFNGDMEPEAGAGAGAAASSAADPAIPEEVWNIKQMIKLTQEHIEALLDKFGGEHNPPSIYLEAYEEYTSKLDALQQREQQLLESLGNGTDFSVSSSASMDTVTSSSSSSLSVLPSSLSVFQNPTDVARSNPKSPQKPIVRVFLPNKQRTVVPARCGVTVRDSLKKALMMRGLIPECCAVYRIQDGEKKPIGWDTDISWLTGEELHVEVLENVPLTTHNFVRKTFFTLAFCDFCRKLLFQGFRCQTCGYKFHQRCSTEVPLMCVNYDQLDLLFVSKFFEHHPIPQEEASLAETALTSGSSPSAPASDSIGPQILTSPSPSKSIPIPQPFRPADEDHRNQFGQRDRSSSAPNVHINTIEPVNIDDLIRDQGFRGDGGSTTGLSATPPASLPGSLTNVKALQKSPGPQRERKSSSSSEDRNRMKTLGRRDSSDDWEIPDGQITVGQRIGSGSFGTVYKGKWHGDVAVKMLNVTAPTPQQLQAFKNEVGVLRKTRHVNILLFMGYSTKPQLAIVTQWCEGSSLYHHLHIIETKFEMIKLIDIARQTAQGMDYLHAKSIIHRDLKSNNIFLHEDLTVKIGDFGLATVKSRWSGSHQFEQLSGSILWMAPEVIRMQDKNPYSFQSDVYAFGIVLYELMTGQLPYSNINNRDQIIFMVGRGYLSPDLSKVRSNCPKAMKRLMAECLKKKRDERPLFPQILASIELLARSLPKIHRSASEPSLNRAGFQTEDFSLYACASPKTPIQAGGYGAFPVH

For `CC(C)c1nc(-c2cccc(NS(=O)(=O)c3c(F)cccc3F)c2)c(-c2ccnc(Nc3ccc(N4CCN(CCS(C)(=O)=O)CC4)c(F)c3)n2)s1` [Example 16, 2,6-Difluoro-N-{3-[5-{2-[(3-fluoro-4-{4-[2-(methylsulfonyl)ethyl]-1-piperazinyl}phenyl)amino]-4-pyrimidinyl}-2-(1-methylethyl)-1,3-thiazol-4-yl]ohenyl}benzenesulfonamide hydrochloride], the IC50 at B-Raf (setting [1]) is below 100 nM; in the experiment with BT474 tumor cells (Homo sapiens, BT-474, 72 h), above 1000 nM.
On the same counts, the results for `CC(C)c1nc(-c2cccc(NS(=O)(=O)c3c(F)cccc3F)c2F)c(-c2ccnc(Nc3ccc(N4CCOCC4)nc3)n2)s1` [Example 123] are below 100 nM and above 1000 nM.
In the same order, the values of `CC(=O)N1CCN(c2ccc(Nc3nccc(-c4oc(C(C)C)nc4-c4cccc(NS(=O)(=O)c5c(F)cccc5F)c4)n3)cn2)CC1` [Example 56] are below 100 nM and above 1000 nM.
In the same order, the values of `O=S(=O)(Nc1cccc(-c2nc(N3CCOCC3)sc2-c2ccnc(Nc3ccc(N4CCOCC4)nc3)n2)c1Cl)c1c(F)cccc1F` [Example 146] are below 100 nM and above 1000 nM.
Turning to `CC(C)c1nc(-c2ccnc(NS(=O)(=O)c3c(F)cccc3F)c2)c(-c2ccnc(Nc3ccc(N4CCOCC4)nc3)n2)s1` [Example 32, 2,6-Difluoro-N-{4-[2-(1-methylethyl)-5-(2-{[6-(4-morpholinyl}-3-pyridinyl]amino}-4-pyrimidinyl)-1,3-thiazol-4-yl]-2-pyridinyl}benzenesulfonamide], the IC50 against B-Raf (setting [1]) is below 100 nM; with BT474 tumor cells (Homo sapiens, BT-474, 72 h), above 1000 nM.
In the same order, the values of `CC(C)c1nc(-c2ccc(F)c(NS(=O)(=O)c3c(F)cccc3F)c2)c(-c2ccnc(Nc3ccc(N4CCC(C#N)CC4)nc3)n2)s1` [Example 24, N-{5-[5-(2-{[6-(4-Cyano-1-piperidinyl)-3-pyridinyl]amino}-4-pyrimidinyl)-2-(1-methylethyl)-1,3-thiazol-4-yl]-2-fluorophenyl}-2,6-difluorobenzenesulfonamide] are below 100 nM and above 1000 nM.
On to `CS(=O)(=O)CCN1CCN(c2ccc(Nc3nccc(-c4oc(N5CCCC5)nc4-c4ccc(F)c(NS(=O)(=O)c5c(F)cccc5F)c4)n3)cc2F)CC1` [Example 119], for which the IC50 against B-Raf (setting [1]) is below 100 nM; with BT474 tumor cells (Homo sapiens, BT-474, 72 h) it was above 1000 nM.
On to `COCCN1CCN(c2ccc(Nc3nccc(-c4sc(C(C)C)nc4-c4cccc(NS(=O)(=O)c5ccccc5)c4)n3)cn2)CC1` [Example 6, N-[3-(2-(1-Methylethyl)-5-{2-[(6-{4-[2-(methyloxy)ethyl]-1-piperazinyl}-3-pyridinyl)amino]-4-pyrimidinyl}-1,3-thiazol-4-yl)phenyl]benzenesulfonamide], for which the IC50 against B-Raf (Method A) was below 100 nM; with BT474 tumor cells (Homo sapiens, BT-474, 72 h), above 1000 nM.
Turning to `CCOc1ccc(Nc2nccc(-c3sc(C(C)C)nc3-c3ccc(F)c(NS(=O)(=O)c4c(F)cccc4F)c3)n2)cc1N1CCN(CCF)CC1` [Example 98], the IC50 against B-Raf (setting [1]) was below 100 nM; in the experiment on BT474 tumor cells (Homo sapiens, BT-474, 72 h) it was above 1000 nM.
In the same order, the values of `Cc1cc(Nc2nccc(-c3sc(C(C)C)nc3-c3ccc(F)c(NS(=O)(=O)c4c(F)cccc4F)c3)n2)ccn1` [Example 116] are below 100 nM and above 1000 nM.
In the same order, the values of `Cc1nc(-c2cccc(NS(=O)(=O)c3c(F)cccc3F)c2)c(-c2ccnc(Nc3ccc(N4CCOCC4)nc3)n2)s1` [Example 133] are below 100 nM and above 1000 nM.
`Cc1cc(Nc2nccc(-c3sc(C(C)(C)C)nc3-c3cccc(NS(=O)(=O)c4c(F)cccc4F)c3F)n2)ccn1` [Example 159]: the IC50 is below 100 nM at B-Raf (setting [1]) and above 1000 nM in the experiment on BT474 tumor cells (Homo sapiens, BT-474, 72 h).
Take `CCNc1nc(-c2cccc(NS(=O)(=O)c3ccccc3)c2)c(-c2ccnc(Nc3ccc(OCCN4CCCC4)c(F)c3)n2)s1` [Example 1, N-(3-(2-(Ethylamino)-5-{2-[(3-fluoro-4-[[2-(1-pyrrolidinyl)ethyl]oxy}phenyl)amino]-4-pyrimidinyl}-1,3-thiazol-4-yl)phenyl]benzenesulfonamide]: the IC50 at B-Raf (Method A) and with BT474 tumor cells was 100 to 1000 nM throughout.
As for `CS(=O)(=O)c1cccc(Nc2nccc(-c3sc(N4CCOCC4)nc3-c3cccc(NS(=O)(=O)c4c(F)cccc4F)c3Cl)n2)c1` [Example 145], the IC50 was below 100 nM against B-Raf (setting [1]) and above 1000 nM with BT474 tumor cells (Homo sapiens, BT-474, 72 h).
For the molecule `CCNc1nc(-c2cccc(NS(=O)(=O)c3ccccc3)c2)c(-c2ccnc(Nc3ccc(OCCN4CCCC4)c(F)c3)n2)s1` [Example 65], the IC50 was below 100 nM against B-Raf (Method A) and above 1000 nM in the experiment on BT474 tumor cells.
Take `CCc1nc(-c2cccc(CNS(=O)(=O)c3ccccc3)c2)c(-c2ccnc(Nc3ccc(N4CCOCC4)c(F)c3)n2)s1` [Example 34]: the IC50 on B-Raf (setting [1]) was below 100 nM; with BT474 tumor cells (Homo sapiens, BT-474, 72 h) it was above 1000 nM.
On the same counts, the results for `COc1ccc(Nc2nccc(-c3sc(C(C)C)nc3-c3cccc(NS(=O)(=O)c4ccccc4)c3)n2)cc1N1CCN(CCC#N)CC1` [Example 9, N-{3-[5-(2-{[3-[4-(2-Cyanoethyl)-1-piperazinyl]-4-(methyloxy)phenyl]amino}-4-pyrimidinyl)-2-(1-methylethyl)-1,3-thiazol-4-yl]phenyl}benzenesulfonamide] are below 100 nM and above 1000 nM.
In the same order, the values of `O=S(=O)(Nc1cc(-c2nc(N3CCCC3)oc2-c2ccnc(Nc3ccc(N4CCN(CCF)CC4)c(F)c3)n2)ccc1F)c1c(F)cccc1F` [Example 114] are 100 to 1000 nM and above 1000 nM.
For `O=S(=O)(Nc1cccc(-c2nc(N3CCCC3)sc2-c2ccnc(Nc3ccc(N4CCN(CCF)CC4)c(F)c3)n2)c1)c1c(F)cccc1F` [Example 21, 2,6-Difluoro-N-{3-[5-[2-({3-fluoro-4-[4-(2-fluoroethyl)-1-piperazinyl]phenyl}amino)-4-pyrimidinyl]-2-(1-pyrrolidinyl)-1,3-thiazol-4-yl]phenyl}benzenesulfonamide], the IC50 on B-Raf (setting [1]) was below 100 nM; with BT474 tumor cells (Homo sapiens, BT-474, 72 h), above 1000 nM.
On the same counts, the results for `CC(C)c1nc(-c2ccc(F)c(NS(=O)(=O)c3ccccc3C#N)c2)c(-c2ccnc(Nc3ccc(N4CCOCC4)nc3)n2)s1` [Example 107] are below 100 nM and above 1000 nM.
On the same counts, the results for `CC(C)c1nc(-c2cc(F)c(F)c(NS(=O)(=O)c3cccc(F)c3)c2)c(-c2ccnc(Nc3cnc(N4CCOCC4)c(F)c3)n2)s1` [Example 31, N-{2,3-Difluoro-5-[5-(2-{[5-fluoro-6-(4-morpholinyl)-3-pyridinyl]amino}-4-pyrimidinyl)-2-(1-methylethyl)-1,3-thiazol-4-yl]phenyl}-3-fluorobenzenesulfonamide] are below 100 nM and above 1000 nM.
In the same order, the values of `CC(=O)N1CCN(c2ccc(Nc3nccc(-c4sc(C(C)C)nc4-c4cccc(NS(=O)(=O)c5cccc(C(F)(F)F)c5)c4)n3)cn2)CC1` [Example 70] are 100 to 1000 nM and above 1000 nM.
As for `CC(C)c1nc(-c2cccc(NS(=O)(=O)c3c(F)cccc3F)c2)c(-c2ccnc(Nc3ccc(N4CCOCC4)nc3)n2)s1` [Example 17, 2,6-Difluoro-N-{3-[2-(1-methylethyl)-5-(2-{[6-(4-morpholinyl)-3-pyridinyl]amino}-4-pyrimidinyl)-1,3-thiazol-4-yl]phenyl}benzenesulfonamide], the IC50 is below 100 nM against B-Raf (setting [1]) and above 1000 nM with BT474 tumor cells (Homo sapiens, BT-474, 72 h).
On the same counts, the results for `CC(C)c1nc(-c2cccc(NS(=O)(=O)c3c(F)cccc3F)c2)c(-c2ccnc(Nc3ccc(N4CCN5CCOC[C@H]5C4)nc3)n2)s1` [Example 15] are below 100 nM and above 1000 nM.
In the same order, the values of `CC(C)c1nc(-c2ccc(F)c(NS(=O)(=O)c3ccccc3F)c2)c(-c2ccnc(Nc3ccc(N4CCN(CCS(C)(=O)=O)CC4)c(F)c3)n2)s1` [Example 22, 2-Fluoro-N-{2-fluoro-5-[5-{2-[(3-fluoro-4-}4-[2-(methylsulfonyl)ethyl]-1-piperazinyl}phenyl)amino]-4-pyrimidinyl}-2-(1-methylethyl)-1,3-thiazol-4-yl]phenyl}benzenesulfonamide hydrochloride] are below 100 nM and above 1000 nM.
In the same order, the values of `CC(C)c1nc(-c2ccc(F)c(NS(=O)(=O)c3c(F)cccc3F)c2)c(-c2ccnc(Nc3ccnc(N4CCOCC4)c3)n2)s1` [Example 117] are below 100 nM and above 1000 nM.
With `CC(C)c1nc(-c2cccc(NS(=O)(=O)c3cccnc3)c2)c(-c2ccnc(Nc3ccc(N4CCOCC4)nc3)n2)s1` [Example 52], the IC50 was below 100 nM on B-Raf (setting [1]) and above 1000 nM with BT474 tumor cells (Homo sapiens, BT-474, 72 h).
In the same order, the values of `O=S(=O)(Nc1cccc(-c2ncsc2-c2ccnc(Nc3ccc(N4CCOCC4)nc3)n2)c1)c1c(F)cccc1F` [Example 162] are below 100 nM and above 1000 nM.
On the same counts, the results for `COc1cc(N2CCN(CCS(C)(=O)=O)CC2)c(C)cc1Nc1nccc(-c2sc(N3CCOCC3)nc2-c2cccc(NS(=O)(=O)c3c(F)cccc3F)c2)n1` [Example 128] are 100 to 1000 nM and 100 to 1000 nM.
In the same order, the values of `CC(C)c1nc(-c2ccnc(NS(=O)(=O)c3c(F)cccc3F)c2)c(-c2ccnc(Nc3cnc(N4CCOCC4)c(F)c3)n2)s1` [Example 33] are below 100 nM and above 1000 nM.
Take `CC(C)c1nc(-c2ccc(F)c(NS(=O)(=O)c3c(F)cccc3F)c2)c(-c2ccnc(Nc3ccc(N4CCOCC4)nc3)n2)s1` [Example 23, 2,6-Difluoro-N-{2-fluoro-5-[2-(1-methylethyl)-5-(2-{[6-(4-morpholinyl)-3-pyridinyl]amino}-4-pyrimidinyl)-1,3-thiazol-4-yl]phenyl}benzenesulfonamide]: the IC50 is below 100 nM at B-Raf (setting [1]) and above 1000 nM with BT474 tumor cells (Homo sapiens, BT-474, 72 h).
As to `CN(C)c1nc(-c2ccc(F)c(NS(=O)(=O)c3c(F)cccc3F)c2)c(-c2ccnc(Nc3ccc(N4CCOCC4)nc3)n2)s1` [Example 27, N-{5-[2-(Dimethylamino)-5-(2-{[6-(4-morpholinyl)-3-pyridinyl]amino}-4-pyrimidinyl)-1,3-thiazol-4-yl]-2-fluorophenyl}-2,6-difluorobenzenesulfonamide], the IC50 is below 100 nM on B-Raf (setting [1]) and above 1000 nM with BT474 tumor cells (Homo sapiens, BT-474, 72 h).
